The values that follow come from ChEMBL document CHEMBL4270502, “From bench (laboratory) to bed (hospital/home): How to explore effective natural and synthetic PAK1-blockers/longevity-promoters for cancer therapy” (Eur J Med Chem, 2017).

Series [1] deals with A549. Put plainly: Growth inhibition of human A549 cells. The format is functional, cell-based.
In series [2] the test system is Caenorhabditis elegans. Put plainly: Increase in lifespan of Caenorhabditis elegans. The class given is functional.
Series [3] concerns Caenorhabditis elegans. Put plainly: Increase in lifespan of Caenorhabditis elegans N2 CGCb under 2 mM H2O2-induced oxidative stress conditions at 1 to 50 mg/L. The class given is functional.
The test system of series [4] is A549. The series is described as follows: Growth inhibition of RAS-transformed human A549 cells. The class given is functional, cell-based.
The target in series [5] is T1, Serine/threonine-protein kinase PAK 1 (Mus musculus, UniProt O88643). Put plainly: Inhibition of PAK1 in v-Ha-RAS-transformed mouse NIH/3T3 cells incubated for 1 hr by immunoblot analysis. A general note: A western blot detects proteins with antibodies after separation by electrophoresis.
Series [6] has as its target Mitogen-activated protein kinase kinase kinase 11 (Homo sapiens, UniProt Q16584). Put plainly: Inhibition of flag-tagged MLK3 (unknown origin) expressed in human HeLa cells assessed as reduction in enzyme autophosphorylation incubated for 20 mins by immunoprecipitatation. The format is cell-based.
Series [7] has as its target T2, Serine/threonine-protein kinase PAK 1 (Homo sapiens, UniProt Q13153). Put plainly: Inhibition of PAK1 in human MCF7 cells transfected with constitutively active NH2-terminally truncated C1199 Tiam1 construct. The format is cell-based.
Series [8] deals with T2, Serine/threonine-protein kinase PAK 1. The series is described as follows: Inhibition of PAK1 in human A549 cells. The format is cell-based.
For the next series, the system named is PC-3. Put plainly: Antitumor activity against human PC3 cells wenografted in mouse assessed as inhibition of tumor growth at 3 mg/kg/day. The format is functional. The conditions noted are these: read-out: TGI.
Series [9] is described as follows: Cytotoxicity in human M8 cells by MTT assay. The format is functional, cell-based. On the technique in general: Tetrazolium assays rely on reduction of a dye to a coloured formazan, in cell work by metabolically active cells.
Series [10] deals with Caenorhabditis elegans. The series is described as follows: Increase in lifespan of Caenorhabditis elegans N2 at 100 uM. The class given is functional.
The nature of series [11]: Potency index, ratio of IC50 for caffeic acid to IC50 for test compound for cytotoxicity in human M8 cells by MTT assay. The format is functional.
The next series deals with Mus musculus. The series is described as follows: Increase in lifespan of C57BL/6J mouse at 2 mg/kg/day dosed in drinking water. The format is functional. The conditions noted are these: feed or water.
Series [12] has as its system Caenorhabditis elegans. Put plainly: Increase in lifespan of Caenorhabditis elegans age-1(hx546) at 40 uM. The class given is functional.
Series [13] deals with Caenorhabditis elegans. The series is described as follows: Increase in lifespan of Caenorhabditis elegans N2 var. Bristol at 40 uM. The class given is functional.
Series [14] deals with T2, Serine/threonine-protein kinase PAK 1. Put plainly: Inhibition of PAK1 (unknown origin).
Series [15] can be described thus: Stability assessed as shelf life at 4 degC. The format is physicochemical.
Series [16] addresses T2, Serine/threonine-protein kinase PAK 1. Put plainly: Inhibition of PAK1 in estrogen-stimulated human MCF7 cells incubated for 48 hrs by immunoblot analysis. The class given is cell-based.
For series [17], the target named is T1, Serine/threonine-protein kinase PAK 1. The series is described as follows: Inhibition of PAK1 in v-Ha-RAS-transformed mouse NIH/3T3 cells incubated for 48 hrs by immunoblot analysis.
Series [18] deals with T2, Serine/threonine-protein kinase PAK 1. Put plainly: Inhibition of HA-PAK1 (unknown origin) using histone H4 substrate and [gamma-32P] ATP by autoradiography.
For series [19] the target is unchanged. Put plainly: Inhibition of recombinant human PAK1 by ADP-Glo kinase assay. (In general: In ADP-Glo the light output rises with the ADP produced.)
Another series has as its target Protein kinase C (PKC). The series is described as follows: Inhibition of rat brain PKC using […] derived peptide substrate.
Series [20] deals with Serine/threonine-protein kinase PAK 3 (Homo sapiens, UniProt O75914). The series is described as follows: Inhibition of GST-tagged PAK3 (unknown origin) expressed in Escherichia coli using peptide PC9 substrate.
Series [21] concerns the target T2, Serine/threonine-protein kinase PAK 1. Put plainly: Inhibition of PAK1 (unknown origin) by cell culture based assay.
Series [22] can be described thus: Growth stimulation of HFDPC assessed as increase in cell viability incubated for 3 days by MTT assay. The class given is functional, Homo sapiens.

T2 sequence (Q13153 whole entry, the tested form may be a part): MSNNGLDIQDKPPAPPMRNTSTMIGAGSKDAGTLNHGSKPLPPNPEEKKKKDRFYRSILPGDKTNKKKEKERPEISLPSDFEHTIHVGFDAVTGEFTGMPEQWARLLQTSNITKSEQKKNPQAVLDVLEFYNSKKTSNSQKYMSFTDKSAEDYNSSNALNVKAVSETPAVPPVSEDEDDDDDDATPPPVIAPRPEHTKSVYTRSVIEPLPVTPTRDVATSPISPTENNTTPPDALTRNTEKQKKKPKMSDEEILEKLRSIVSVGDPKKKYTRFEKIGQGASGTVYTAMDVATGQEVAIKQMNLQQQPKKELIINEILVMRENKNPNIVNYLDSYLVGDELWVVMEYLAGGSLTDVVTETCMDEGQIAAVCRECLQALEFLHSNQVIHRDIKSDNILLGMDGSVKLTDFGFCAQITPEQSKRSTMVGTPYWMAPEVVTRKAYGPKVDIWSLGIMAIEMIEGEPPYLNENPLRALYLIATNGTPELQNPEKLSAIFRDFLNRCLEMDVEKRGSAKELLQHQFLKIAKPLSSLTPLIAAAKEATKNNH
T1 sequence (O88643 whole entry): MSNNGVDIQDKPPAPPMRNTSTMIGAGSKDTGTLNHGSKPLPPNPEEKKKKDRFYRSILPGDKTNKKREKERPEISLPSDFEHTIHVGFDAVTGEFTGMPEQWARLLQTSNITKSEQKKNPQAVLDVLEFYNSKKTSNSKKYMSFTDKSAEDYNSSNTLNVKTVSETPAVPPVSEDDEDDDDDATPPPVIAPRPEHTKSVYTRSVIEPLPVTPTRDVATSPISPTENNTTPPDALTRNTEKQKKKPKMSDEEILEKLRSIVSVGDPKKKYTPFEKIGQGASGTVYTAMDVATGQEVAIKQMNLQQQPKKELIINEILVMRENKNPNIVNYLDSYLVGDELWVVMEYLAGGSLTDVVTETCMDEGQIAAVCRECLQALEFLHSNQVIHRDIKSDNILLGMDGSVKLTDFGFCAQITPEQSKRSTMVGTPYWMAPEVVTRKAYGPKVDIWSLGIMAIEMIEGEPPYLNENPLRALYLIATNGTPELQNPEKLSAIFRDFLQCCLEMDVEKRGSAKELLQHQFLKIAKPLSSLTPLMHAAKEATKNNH
Chain of Mitogen-activated protein kinase kinase kinase 11 (Q16584 whole entry, the tested form may be a part): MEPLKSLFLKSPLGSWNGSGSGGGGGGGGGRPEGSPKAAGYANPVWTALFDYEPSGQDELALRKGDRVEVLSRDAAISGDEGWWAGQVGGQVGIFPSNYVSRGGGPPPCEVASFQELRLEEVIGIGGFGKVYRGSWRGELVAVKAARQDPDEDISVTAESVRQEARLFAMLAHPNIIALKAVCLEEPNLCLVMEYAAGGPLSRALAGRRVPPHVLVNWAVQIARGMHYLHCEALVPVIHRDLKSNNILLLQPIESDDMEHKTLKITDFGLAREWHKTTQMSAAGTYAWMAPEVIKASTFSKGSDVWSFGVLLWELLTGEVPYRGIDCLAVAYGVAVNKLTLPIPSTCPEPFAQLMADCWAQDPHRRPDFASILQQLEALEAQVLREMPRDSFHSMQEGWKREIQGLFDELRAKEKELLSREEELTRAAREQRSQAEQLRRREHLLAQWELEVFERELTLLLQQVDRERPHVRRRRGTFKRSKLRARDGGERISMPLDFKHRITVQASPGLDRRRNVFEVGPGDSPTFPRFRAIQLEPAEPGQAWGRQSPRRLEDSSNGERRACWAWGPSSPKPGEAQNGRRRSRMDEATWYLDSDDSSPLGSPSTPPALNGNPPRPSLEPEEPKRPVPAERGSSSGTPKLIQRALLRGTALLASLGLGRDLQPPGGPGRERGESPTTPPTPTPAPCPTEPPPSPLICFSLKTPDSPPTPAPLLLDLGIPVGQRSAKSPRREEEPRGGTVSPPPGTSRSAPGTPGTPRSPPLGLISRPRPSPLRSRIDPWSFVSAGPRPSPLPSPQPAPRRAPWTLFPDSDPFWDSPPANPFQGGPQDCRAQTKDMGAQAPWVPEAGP
Chain of Serine/threonine-protein kinase PAK 3 (O75914 whole entry): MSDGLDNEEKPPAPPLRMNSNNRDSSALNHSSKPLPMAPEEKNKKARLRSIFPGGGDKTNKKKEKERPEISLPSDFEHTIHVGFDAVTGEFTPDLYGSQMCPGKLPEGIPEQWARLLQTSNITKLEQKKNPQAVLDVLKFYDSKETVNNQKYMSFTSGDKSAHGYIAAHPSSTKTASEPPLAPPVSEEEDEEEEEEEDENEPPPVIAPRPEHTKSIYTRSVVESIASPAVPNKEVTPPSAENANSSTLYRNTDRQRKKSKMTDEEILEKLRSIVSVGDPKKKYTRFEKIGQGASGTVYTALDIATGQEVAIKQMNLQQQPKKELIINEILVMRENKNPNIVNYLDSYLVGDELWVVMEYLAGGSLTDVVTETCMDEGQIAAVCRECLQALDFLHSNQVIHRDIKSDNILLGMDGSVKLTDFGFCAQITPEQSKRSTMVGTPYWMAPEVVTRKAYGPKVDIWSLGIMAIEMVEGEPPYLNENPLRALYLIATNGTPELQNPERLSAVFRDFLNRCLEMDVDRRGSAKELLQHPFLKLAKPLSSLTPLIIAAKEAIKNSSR

In turn, `COc1ccc2[nH]cc(CCNC(C)=O)c2c1` [MELATONIN] came in with an IC50 in the series with A549 [1] of 1300 µM.

For `CC(=O)CCC=C(C)CCC=C(C)CCC=C(C)CCC=C(C)C`, in the series on A549 [1], the midpoint of inhibition, the IC50, lay at 10 µM.

For the compound `CC(C)[C@]12O[C@H]1[C@@H]1O[C@]13[C@]1(O[C@H]1C[C@H]1C4=C(CC[C@@]13C)C(=O)OC4)[C@@H]2O` [TRIPTOLIDE], the increase in life span (ILS) in the series with Caenorhabditis elegans [2] and in the series with Caenorhabditis elegans [3] was 20% throughout. Also, in the series on A549 [1], the IC50 came to 0.03 µM.

As for `COc1ccccc1-n1cc(COC(=O)C2CCn3c(C(=O)c4ccccc4)ccc32)nn1` (stereo not given), the increase in life span (ILS) in the series on Caenorhabditis elegans [2] was determined as 30%.

Turning to `CCSCc1ccc2c(c1)c1c3c(c4c5cc(CSCC)ccc5n5c4c1n2C1C[C@](O)(C(=O)OC)[C@]5(C)O1)CNC3=O`, the half-maximal inhibitory concentration (IC50) in the series on A549 [4] amounted to 1 µM; in [5] it was 1 µM; in the series on A549 [1] it was 1 µM; in series [6], 0.02 µM.

With `CC(C)NC(=O)N1CC[C@H](NC2=Nc3cc(F)ccc3N(CC(F)F)c3ccc(Cl)cc32)C1`, the 50% inhibitory concentration (IC50) in the series on A549 [1] worked out at 0.25 µM.

`Cc1cc(C)cc(NC(=N)Nc2ccccc2C(F)(F)F)c1` gave an IC50 in series [7] of 4 µM.

As for `COc1c(C)c2c(c(O)c1C/C=C(\C)CCC(=O)OCCN1CCOCC1)C(=O)OC2` [MYCOPHENOLATE MOFETIL], the IC50 in the series with A549 [1] lay in the range of 0.05 to 0.5 µM.

Regarding `CC(C)(O)/C=C/C(=O)[C@](C)(O)[C@H]1[C@H](O)C[C@@]2(C)[C@@H]3CC=C4[C@@H](C=C(O)C(=O)C4(C)C)[C@]3(C)C(=O)C[C@]12C` [CUCURBITACIN I], half-maximal inhibition in the series with A549 [1] (IC50) required 0.14 µM.

Turning to `COCCn1c2c([n+](Cc3cnccn3)c1C)C(=O)c1ccccc1C2=O` [SEPANTRONIUM BROMIDE], the half-inhibitory concentration (IC50) in series [8] came to 0.5 µM; in the series with A549 [1], 0.0134 µM. The inhibition in vivo at 3 mg/kg/day with PC-3 is > 50%.

Turning to `O=C(/C=C/c1ccc(O)c(O)c1)OCCc1ccccc1` [CAFFEIC ACID PHENETHYL ESTER], the half-maximal inhibitory concentration (IC50) (in series [9]; with A549 [1]) was 10 µM in each case. Further, the Activity in the series on Caenorhabditis elegans [10] is recorded as 15%. Further, in series [11], the “Ratio IC50” value is 10.

Take `C[C@H](CCCCC(=O)O)O[C@@H]1O[C@@H](C)[C@H](O)C[C@H]1O` [DAUMONE]: the ILS at 2 mg/kg/day in the series with Mus musculus turned out to be 50%. Besides, the IC50 with A549 [1] came to 0.02 µM.

Turning to `CC1=C(/C=C/C(C)=C/C=C/C(C)=C/C=C/C=C(C)/C=C/C=C(C)/C=C/C2=C(C)C(=O)C(O)CC2(C)C)C(C)(C)CC(O)C1=O` (stereo not given), the Activity in the series on Caenorhabditis elegans [12] and in the series on Caenorhabditis elegans [13] was 16 - 30% throughout. The same compound showed an IC50 in the series with A549 [1] of 40 µM.

As for `Oc1ccc2ccccc2c1SSc1c(O)ccc2ccccc12`, the IC50 worked out at 1 µM in series [14] and 30 µM in the series on A549 [1].

For `CC(C)(C)c1cc(/C=C(\C#N)C(=S)NCCCCCCN)cc(C(C)(C)C)c1O`, half-maximal inhibition in the series on A549 [1] (IC50) was put at 0.005 µM.

Turning to `CC(C)[C@]12O[C@H]1[C@@H]1O[C@]13[C@]1(O[C@H]1C[C@H]1C4=C(CC[C@@]13C)C(=O)OC4)[C@@H]2OCOP(=O)([O-])[O-].[Na+].[Na+]` [MINNELIDE], the Stability in series [15] worked out at 2 yr.

Take `CC(C)=CCC/C(C)=C/Cc1c([C@@H]2CC(=O)c3c(O)cc(O)cc3O2)ccc(O)c1O` [NYMPHAEOL B]: in the series on A549 [1], the concentration for half-maximal inhibition (IC50) was 4 to 7 µM.

For `Cc1ccc(-c2nn(C(C)(C)C)c3ncnc(N)c23)cc1`, the 50% inhibitory concentration (IC50) in the series with A549 [1] was 0.01 µM.

Turning to `COc1ccccc1-n1cc(COC(=O)/C=C/c2ccc(O)c(O)c2)nn1`, the IC50 in the series on A549 [1] amounted to 0.225 µM.

In the case of `C/C=C1\NC(=O)[C@H]2CSSCC/C=C/[C@H](CC(=O)N[C@H](C(C)C)C(=O)N2)OC(=O)[C@H](C(C)C)NC1=O` [ROMIDEPSIN], the IC50 in series [16] and in series [17] was < 0.001 µM throughout.

In the series with A549 [1], `COc1cc(/C=C/C(=O)CC(=O)/C=C/c2ccc(O)c(OC)c2)ccc1O` [CURCUMIN] had an IC50 of 23 µM.

On to `CCS(=O)(=O)c1cc(Nc2ncc(F)c(N(Cc3ccccc3C#N)c3cc(CO)ccc3C)n2)ccc1N1CCN(C)CC1`, for which 0.06 µM corresponded to half-maximal inhibition with A549 [1] (IC50).

For the compound `CCCCCC(=O)c1c(O)cc(OC)c(Cl)c1O`, the IC50 with A549 [1] was 2 to 3 µM; in series [18], 2.5 µM.

In the case of `CC(C)=CCC/C(C)=C/Cc1c([C@@H]2CC(=O)c3c(cc(O)c(CC=C(C)C)c3O)O2)ccc(O)c1O` [NYMPHAEOL C], in the series on A549 [1], the IC50 was 4 to 7 µM.

Compound `O=C(O)/C=C/c1ccc(O)c(O)c1` [CAFFEIC ACID] showed an IC50 in [9] of 100 µM.

For the compound `CO[C@@H]1[C@@H](O)[C@H](O[C@@H]2[C@@H](O)[C@H](O[C@H]3[C@H](O)[C@@H](O[C@@H]4OC[C@@H](O)[C@H](O)[C@H]4O)[C@H](O[C@H]4[C@H](O[C@H]5CC[C@]6(C)[C@@H]7CCC89C(=O)O[C@@](C)(CCCC(C)C)[C@H]8[C@@H](OC(C)=O)C[C@@]9(C)C7=CC[C@H]6C5(C)C)OC[C@@H](OS(=O)(=O)O)[C@@H]4O)O[C@@H]3C)OC[C@H]2O)O[C@H](CO)[C@H]1O` (stereo not given in full), the concentration for half-maximal inhibition (IC50) in series [19] is 1 µM; in the series with A549 [4], 1 µM; with A549 [1], 0.6 to 1.5 µM.

In the case of `COc1ccccc1-n1cc(COC(=O)[C@]23CC[C@@H](C)[C@H](C)[C@H]2C2=CC[C@@H]4[C@@]5(C)CC[C@H](O)C(C)(C)[C@@H]5CC[C@@]4(C)[C@]2(C)CC3)nn1`, it took 0.1 µM to reach half-maximal inhibition in the series with A549 [1] (IC50).

Consider `CN[C@@H]1C[C@H]2O[C@@](C)([C@@H]1OC)n1c3ccc(O)cc3c3c4c(c5c6cc(O)ccc6n2c5c31)C(=O)NC4`, for which the IC50 (on Protein kinase C (PKC); in series [20]) was 0.001 µM throughout.

As to `CNc1ncc2cc(-c3ccc(-c4cccc(C)n4)cc3Cl)c(=O)n(C[C@H]3OC[C@H](N)CO3)c2n1`, the IC50 in the series on A549 [1] was > 1 µM.

Take `CC(C)=CCc1cc(/C=C/C(=O)O)cc(CC=C(C)C)c1O` [ARTEPILLIN]: the IC50 (in series [21]; in the series with A549 [1]) was 25 µM in each case. Besides, the ED in series [22] was found to be 20 µM.

For `CC(C)(C)c1cc(/C=C(\C#N)C(N)=S)cc(C(C)(C)C)c1O` [TYRPHOSTIN AG 879], the IC50 in the series with A549 [1] was found to be 0.005 µM.

As for `CC(C)=CCC/C(C)=C/Cc1c(O)cc2c(c1O)C(=O)C[C@@H](c1ccc(O)c(O)c1)O2` [NYMPHAEOL A], in the series with A549 [1], the half-maximal inhibitory concentration (IC50) lay in the range of 4 to 7 µM.

Turning to `Oc1ccc(/C=C/c2cc(O)cc(O)c2)cc1` [RESVERATROL], the values for the half-maximal inhibitory concentration (IC50) (in series [19]; in the series on A549 [1]) were 15 µM and 30 µM, respectively.

Usually IC50 stands for the point on the concentration scale where inhibition reaches its midpoint. The ILS is the gain in survival time of treated over control animals, in per cent. High values mean much gain in survival, low ones little gain in survival.
